The results in this text go back to ChEMBL document CHEMBL1212811, “Chemical phylogenetics of histone deacetylases” (Nat Chem Biol, 2010).

Experiment [1] concerns the target T1, Protein deacetylase HDAC6 (Homo sapiens, UniProt Q9UBN7).
T1 sequence (Q9UBN7 whole entry): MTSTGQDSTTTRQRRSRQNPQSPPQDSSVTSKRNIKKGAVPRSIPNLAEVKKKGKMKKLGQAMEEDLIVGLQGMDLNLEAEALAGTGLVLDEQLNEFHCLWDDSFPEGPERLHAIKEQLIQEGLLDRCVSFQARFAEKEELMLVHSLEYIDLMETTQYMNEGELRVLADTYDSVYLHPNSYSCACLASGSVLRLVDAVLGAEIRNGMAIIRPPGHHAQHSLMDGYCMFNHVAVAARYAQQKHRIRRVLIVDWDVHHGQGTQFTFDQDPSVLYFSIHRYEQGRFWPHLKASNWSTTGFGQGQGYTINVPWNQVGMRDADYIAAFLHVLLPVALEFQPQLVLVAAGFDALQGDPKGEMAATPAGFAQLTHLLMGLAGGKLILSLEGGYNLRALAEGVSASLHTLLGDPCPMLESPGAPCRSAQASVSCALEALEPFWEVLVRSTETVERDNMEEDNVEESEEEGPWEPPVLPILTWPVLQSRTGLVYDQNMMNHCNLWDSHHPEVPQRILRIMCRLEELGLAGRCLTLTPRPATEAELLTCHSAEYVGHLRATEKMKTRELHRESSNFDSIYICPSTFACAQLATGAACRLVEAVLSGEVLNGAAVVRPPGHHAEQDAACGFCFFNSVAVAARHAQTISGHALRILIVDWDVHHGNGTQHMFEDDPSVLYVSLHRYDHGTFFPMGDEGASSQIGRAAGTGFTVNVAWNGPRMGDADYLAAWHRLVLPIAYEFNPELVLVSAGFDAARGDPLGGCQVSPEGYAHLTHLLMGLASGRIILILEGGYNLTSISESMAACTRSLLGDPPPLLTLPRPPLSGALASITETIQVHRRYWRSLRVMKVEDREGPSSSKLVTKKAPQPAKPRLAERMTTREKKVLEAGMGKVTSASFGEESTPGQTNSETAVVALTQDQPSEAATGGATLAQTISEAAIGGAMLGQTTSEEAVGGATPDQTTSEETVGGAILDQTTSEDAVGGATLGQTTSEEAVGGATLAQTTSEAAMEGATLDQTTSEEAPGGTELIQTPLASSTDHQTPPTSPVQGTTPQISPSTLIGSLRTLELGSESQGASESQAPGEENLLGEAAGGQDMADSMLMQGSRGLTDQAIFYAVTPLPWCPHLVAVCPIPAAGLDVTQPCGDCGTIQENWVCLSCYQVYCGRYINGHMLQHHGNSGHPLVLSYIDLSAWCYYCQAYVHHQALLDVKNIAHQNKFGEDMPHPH

For experiment [2], the target named is T2, Histone deacetylase 8 (Homo sapiens, UniProt Q9BY41).
T2 sequence (Q9BY41 whole entry): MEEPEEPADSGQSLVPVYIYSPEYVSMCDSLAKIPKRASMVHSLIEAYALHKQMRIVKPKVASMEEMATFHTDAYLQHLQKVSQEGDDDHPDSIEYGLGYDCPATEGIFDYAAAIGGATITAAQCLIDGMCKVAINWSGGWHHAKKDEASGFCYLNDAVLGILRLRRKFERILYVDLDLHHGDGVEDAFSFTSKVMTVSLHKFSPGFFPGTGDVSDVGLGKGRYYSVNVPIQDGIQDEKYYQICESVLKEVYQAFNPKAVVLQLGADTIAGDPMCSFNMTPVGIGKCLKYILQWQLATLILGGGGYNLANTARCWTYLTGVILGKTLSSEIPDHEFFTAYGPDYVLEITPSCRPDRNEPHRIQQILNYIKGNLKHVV

For experiment [3], the target named is Histone deacetylase 5 (Homo sapiens, UniProt Q9UQL6).
Chain of Histone deacetylase 5 (Q9UQL6 whole entry): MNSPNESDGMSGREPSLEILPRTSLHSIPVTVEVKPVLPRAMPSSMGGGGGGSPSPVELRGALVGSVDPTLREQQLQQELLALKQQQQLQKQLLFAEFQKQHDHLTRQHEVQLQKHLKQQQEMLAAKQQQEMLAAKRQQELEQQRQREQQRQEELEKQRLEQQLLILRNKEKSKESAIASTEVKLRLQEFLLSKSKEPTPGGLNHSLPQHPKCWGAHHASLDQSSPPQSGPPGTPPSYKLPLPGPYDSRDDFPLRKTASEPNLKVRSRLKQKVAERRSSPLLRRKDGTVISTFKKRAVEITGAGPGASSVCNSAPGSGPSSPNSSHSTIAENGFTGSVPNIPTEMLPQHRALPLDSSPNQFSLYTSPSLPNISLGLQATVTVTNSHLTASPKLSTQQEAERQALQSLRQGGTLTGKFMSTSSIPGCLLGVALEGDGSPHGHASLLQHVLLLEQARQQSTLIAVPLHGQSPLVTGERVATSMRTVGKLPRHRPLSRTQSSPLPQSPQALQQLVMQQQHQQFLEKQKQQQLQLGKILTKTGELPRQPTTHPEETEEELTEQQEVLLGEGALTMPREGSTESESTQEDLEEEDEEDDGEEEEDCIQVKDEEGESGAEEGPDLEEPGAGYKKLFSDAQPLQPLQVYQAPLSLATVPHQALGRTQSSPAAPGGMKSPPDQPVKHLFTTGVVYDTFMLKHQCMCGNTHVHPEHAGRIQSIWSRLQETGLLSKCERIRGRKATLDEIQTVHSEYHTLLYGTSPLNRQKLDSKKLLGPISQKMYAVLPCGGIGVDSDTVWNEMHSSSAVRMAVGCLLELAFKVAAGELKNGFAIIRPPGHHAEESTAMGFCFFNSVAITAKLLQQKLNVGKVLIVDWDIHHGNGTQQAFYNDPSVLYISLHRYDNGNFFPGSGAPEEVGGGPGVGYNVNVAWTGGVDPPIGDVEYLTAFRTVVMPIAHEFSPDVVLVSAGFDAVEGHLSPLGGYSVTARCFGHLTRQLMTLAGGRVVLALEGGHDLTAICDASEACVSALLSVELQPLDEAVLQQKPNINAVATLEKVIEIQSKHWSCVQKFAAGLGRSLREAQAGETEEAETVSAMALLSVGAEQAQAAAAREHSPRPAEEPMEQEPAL
Experiment [4] deals with Histone deacetylase 3 (Homo sapiens, UniProt O15379).
Chain of Histone deacetylase 3 (O15379 whole entry): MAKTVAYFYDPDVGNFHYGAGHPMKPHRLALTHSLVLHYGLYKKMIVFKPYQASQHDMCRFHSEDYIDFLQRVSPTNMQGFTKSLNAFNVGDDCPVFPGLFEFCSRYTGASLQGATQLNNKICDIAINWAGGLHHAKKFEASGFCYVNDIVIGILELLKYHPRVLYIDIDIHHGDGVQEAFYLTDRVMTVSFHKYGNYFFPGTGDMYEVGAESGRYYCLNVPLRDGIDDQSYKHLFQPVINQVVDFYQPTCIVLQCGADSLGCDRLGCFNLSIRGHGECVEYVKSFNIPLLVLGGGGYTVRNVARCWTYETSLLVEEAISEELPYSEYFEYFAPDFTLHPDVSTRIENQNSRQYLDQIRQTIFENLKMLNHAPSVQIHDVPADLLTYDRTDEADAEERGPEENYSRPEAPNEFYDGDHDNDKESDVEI
Experiment [5] concerns the target Histone deacetylase 9 (Homo sapiens, UniProt Q9UKV0).
In experiment [6] the target is Histone deacetylase 4 (Homo sapiens, UniProt P56524).
Chain of Histone deacetylase 4 (P56524 whole entry): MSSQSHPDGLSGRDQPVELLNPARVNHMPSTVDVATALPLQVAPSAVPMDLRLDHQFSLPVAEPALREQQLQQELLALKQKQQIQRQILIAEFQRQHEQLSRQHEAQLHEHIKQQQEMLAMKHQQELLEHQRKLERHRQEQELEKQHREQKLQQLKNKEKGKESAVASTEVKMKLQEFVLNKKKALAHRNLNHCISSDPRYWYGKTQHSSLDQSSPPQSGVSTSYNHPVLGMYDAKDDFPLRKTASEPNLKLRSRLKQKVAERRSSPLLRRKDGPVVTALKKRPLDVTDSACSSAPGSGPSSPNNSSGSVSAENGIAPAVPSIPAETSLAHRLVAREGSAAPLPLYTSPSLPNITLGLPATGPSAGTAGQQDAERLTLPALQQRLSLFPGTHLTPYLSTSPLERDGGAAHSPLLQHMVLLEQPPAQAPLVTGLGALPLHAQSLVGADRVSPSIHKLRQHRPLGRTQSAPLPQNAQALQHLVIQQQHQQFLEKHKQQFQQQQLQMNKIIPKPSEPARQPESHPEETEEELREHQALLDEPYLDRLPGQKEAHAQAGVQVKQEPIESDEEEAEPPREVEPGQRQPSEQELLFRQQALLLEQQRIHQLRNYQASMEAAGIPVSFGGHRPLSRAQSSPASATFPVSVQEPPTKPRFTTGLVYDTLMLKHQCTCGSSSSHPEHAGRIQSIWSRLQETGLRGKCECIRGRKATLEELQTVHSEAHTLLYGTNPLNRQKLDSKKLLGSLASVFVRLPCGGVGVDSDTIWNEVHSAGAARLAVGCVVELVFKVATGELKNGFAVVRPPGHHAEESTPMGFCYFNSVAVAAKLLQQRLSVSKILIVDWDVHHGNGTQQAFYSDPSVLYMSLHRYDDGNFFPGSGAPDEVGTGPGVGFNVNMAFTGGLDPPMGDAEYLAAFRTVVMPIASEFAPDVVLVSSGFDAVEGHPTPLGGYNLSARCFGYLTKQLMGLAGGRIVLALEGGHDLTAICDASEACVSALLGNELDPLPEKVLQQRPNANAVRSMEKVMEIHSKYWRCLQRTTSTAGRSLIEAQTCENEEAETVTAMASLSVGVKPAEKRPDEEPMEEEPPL
Experiment [7] concerns the target Histone deacetylase 1 (Homo sapiens, UniProt Q13547).
Experiment [8] concerns the target Histone deacetylase 2 (Homo sapiens, UniProt Q92769).
The target in experiment [9] is T3, Histone deacetylase 7 (Homo sapiens, UniProt Q8WUI4).
T3 sequence (Q8WUI4 whole entry): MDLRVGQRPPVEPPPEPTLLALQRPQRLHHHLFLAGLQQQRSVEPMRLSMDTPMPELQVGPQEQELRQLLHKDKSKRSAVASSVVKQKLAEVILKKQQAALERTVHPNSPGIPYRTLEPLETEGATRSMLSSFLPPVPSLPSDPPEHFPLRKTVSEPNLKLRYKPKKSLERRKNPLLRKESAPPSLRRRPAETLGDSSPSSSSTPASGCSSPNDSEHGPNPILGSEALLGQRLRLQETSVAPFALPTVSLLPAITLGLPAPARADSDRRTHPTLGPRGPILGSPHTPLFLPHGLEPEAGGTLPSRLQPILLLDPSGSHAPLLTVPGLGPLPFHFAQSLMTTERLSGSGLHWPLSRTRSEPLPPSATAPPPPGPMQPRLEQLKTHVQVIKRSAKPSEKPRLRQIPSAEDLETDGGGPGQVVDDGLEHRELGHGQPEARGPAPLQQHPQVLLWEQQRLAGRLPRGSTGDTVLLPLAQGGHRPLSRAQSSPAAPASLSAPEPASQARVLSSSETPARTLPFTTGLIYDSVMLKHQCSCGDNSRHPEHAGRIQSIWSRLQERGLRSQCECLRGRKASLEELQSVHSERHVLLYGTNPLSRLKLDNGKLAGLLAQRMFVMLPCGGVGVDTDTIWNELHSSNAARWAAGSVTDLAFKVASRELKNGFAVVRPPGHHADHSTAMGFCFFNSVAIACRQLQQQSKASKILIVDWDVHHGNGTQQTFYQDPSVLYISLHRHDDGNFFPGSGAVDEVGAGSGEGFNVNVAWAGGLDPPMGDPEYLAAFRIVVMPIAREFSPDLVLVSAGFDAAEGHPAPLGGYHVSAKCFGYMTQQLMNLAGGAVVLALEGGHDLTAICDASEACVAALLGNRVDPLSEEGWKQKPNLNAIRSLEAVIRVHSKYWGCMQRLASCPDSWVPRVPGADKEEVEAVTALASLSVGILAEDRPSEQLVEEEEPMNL

Structures are written as SMILES.

Chain of Histone deacetylase 9 (Q9UKV0 whole entry): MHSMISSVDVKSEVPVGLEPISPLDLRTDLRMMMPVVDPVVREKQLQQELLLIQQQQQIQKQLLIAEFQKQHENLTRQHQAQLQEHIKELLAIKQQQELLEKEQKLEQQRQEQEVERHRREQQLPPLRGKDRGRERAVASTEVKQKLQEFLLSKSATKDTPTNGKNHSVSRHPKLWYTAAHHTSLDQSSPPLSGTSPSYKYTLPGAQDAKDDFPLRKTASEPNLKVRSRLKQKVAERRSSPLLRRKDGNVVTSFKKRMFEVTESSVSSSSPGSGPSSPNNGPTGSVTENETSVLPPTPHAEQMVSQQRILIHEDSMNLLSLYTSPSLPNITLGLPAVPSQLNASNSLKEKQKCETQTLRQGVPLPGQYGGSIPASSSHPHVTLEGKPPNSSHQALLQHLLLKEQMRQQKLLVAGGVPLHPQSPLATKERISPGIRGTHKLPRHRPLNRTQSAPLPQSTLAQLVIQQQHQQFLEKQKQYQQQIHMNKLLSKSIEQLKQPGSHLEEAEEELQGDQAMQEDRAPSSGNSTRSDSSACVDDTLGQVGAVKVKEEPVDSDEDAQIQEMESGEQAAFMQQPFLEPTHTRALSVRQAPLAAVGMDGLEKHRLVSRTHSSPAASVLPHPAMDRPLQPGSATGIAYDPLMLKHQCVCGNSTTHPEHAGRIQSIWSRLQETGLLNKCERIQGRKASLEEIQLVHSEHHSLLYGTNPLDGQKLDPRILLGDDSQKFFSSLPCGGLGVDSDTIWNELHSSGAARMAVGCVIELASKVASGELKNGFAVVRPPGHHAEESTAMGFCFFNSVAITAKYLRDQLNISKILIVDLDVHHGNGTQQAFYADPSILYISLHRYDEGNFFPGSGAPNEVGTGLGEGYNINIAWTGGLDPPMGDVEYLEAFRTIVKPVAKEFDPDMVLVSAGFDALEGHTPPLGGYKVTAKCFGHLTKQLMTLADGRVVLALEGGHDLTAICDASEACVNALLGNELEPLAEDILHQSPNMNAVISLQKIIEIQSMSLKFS
Chain of Histone deacetylase 2 (Q92769 whole entry): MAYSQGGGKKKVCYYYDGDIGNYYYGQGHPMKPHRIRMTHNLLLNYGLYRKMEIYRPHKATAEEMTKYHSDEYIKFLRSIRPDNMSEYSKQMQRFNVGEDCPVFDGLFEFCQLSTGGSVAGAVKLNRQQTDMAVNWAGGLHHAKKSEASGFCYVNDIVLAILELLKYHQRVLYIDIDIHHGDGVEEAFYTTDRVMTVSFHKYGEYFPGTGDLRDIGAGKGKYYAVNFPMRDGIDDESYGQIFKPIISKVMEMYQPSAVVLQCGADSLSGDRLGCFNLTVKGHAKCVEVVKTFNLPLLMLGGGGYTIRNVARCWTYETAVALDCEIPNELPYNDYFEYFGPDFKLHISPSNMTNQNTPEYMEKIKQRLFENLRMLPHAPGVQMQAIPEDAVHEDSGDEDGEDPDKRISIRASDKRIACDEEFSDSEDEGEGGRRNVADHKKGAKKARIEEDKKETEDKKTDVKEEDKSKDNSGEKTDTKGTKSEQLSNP
Chain of Histone deacetylase 1 (Q13547 whole entry): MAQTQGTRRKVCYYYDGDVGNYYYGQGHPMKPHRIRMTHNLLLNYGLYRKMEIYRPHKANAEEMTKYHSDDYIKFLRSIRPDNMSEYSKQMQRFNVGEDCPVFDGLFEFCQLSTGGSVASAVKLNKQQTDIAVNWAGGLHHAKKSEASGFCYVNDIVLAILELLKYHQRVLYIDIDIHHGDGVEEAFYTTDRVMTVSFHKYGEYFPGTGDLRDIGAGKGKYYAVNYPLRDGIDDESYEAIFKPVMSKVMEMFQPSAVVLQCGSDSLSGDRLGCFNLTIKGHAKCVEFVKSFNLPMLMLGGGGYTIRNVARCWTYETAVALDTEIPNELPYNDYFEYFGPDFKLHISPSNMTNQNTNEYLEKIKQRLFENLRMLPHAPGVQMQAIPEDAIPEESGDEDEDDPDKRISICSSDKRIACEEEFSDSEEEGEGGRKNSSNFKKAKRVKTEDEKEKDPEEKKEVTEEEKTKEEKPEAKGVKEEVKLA

Broadly, the Ki is a dissociation constant, usually derived from enzyme kinetics or from competition with a known ligand. A lower Ki goes with a stronger hold on the target. In the case of `O=C(O)CCCCCCC(=O)Nc1ccc([C@H]2O[C@@H](CSc3nc(-c4ccccc4)c(-c4ccccc4)o3)C[C@@H](c3ccc(CO)cc3)O2)cc1` [NILTUBACIN], the Ki in [1] turned out to be 2200 nM; in [2] it was 750 nM.

For the compound `O=C(CCCCCCC(=O)NO)NO` [SUBEROHYDROXAMIC ACID], the inhibitory constant (Ki) in experiment [1] was found to be 14.5 nM; in experiment [3], 9500 nM; in experiment [4], 125 nM.

For the compound `CCN(CC)Cc1ccc2cc(COC(=O)Nc3ccc(C(=O)NO)cc3)ccc2c1` [GIVINOSTAT], the Ki in [5] was determined as 390 nM; in [6], 1050 nM; in experiment [3], 600 nM.

Take `C/C=C1\NC(=O)[C@H]2CSSCC/C=C/[C@H](CC(=O)N[C@H](C(C)C)C(=O)N2)OC(=O)[C@H](C(C)C)NC1=O` [ROMIDEPSIN]: the inhibition constant Ki in [7] amounted to 0.0015 nM.

In the case of `C=C[C@@H](O)[C@@H]1O[C@H]1/C=C/[C@@H]1O[C@H]1[C@@H](C)O` [DEPUDECIN], the figures for the inhibitory constant (Ki) in experiment [7], in experiment [8] and in experiment [4] were 5500 nM, 12500 nM and 14500 nM, respectively.

`O=C(/C=C/c1ccc(C(=O)N/N=C/c2ccc(O)c(O)c2O)cc1)NO`: the Ki in experiment [9] is 1100 nM; in experiment [7] it was 120 nM; in [1] it was 32 nM; in experiment [5], 1400 nM; in [6] it was 950 nM; in experiment [8] it was 70 nM. For the same compound, the inhibitory constant (Ki) is 180 nM in [3], 50 nM in experiment [2] and 120 nM in experiment [4].

For the compound `Cn1c(/C=C/C(=O)NO)ccc1C(=O)Cc1ccccc1`, the Ki in experiment [9] came to 7000 nM; in [7], 55 nM; in [1], 30 nM; in experiment [5], 10000 nM; in [6], 17500 nM; in experiment [8], 125 nM. Moreover, the Ki in experiment [3] worked out at 11500 nM; in [2], 600 nM; in [4], 250 nM.

As to `O=C(CCCCCCC(=O)Nc1cccnc1)NO` [PYROXAMIDE], the Ki in experiment [1] came to 4.8 nM; in experiment [8], 36000 nM; in experiment [3], 4750 nM; in experiment [2], 1000 nM; in experiment [4] it was 8 nM.

Take `O=C(/C=C/c1cccc(S(=O)(=O)Nc2ccccc2)c1)NO` [BELINOSTAT]: the Ki in experiment [1] amounted to 1.6 nM; in experiment [6], 380 nM.

For `O=C(CCCc1ccccc1)NO` [PHENYLBUTYRYLHYDROXAMIC ACID], the Ki was found to be 150 nM in experiment [1], 430 nM in experiment [8], 16000 nM in experiment [3] and 1850 nM in [2].
